# Target: T1, hen egg-white lysozyme (HEWL) (Gallus gallus, UniProt P00698)
# T1 construct: gene LYZ
# Assay: intrinsic Trp fluorescence quenching titration ([…] nm), two-site fit in DynaFit
# Assay type: binding
# Details: pH 2.0, 37 °C, 2 mM sodium chloroacetate, 10 µM HEWL; stronger of two independent sites; cationic ligand
# T1 sequence (P00698 19-147): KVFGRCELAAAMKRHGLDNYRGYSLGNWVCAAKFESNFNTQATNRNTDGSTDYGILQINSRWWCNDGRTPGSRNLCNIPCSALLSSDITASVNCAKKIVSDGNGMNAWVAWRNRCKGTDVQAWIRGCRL
row,Structure (SMILES),Ka (M^-1).10^-3( ^a)
1,"Cc1ccc(O)c(C)n1 [2,6dm-3HP, 3-hydroxy-2,6-dimethylpyridine]",(8.9 ± 0.2)·10^3
2,"Cc1ccc(O)cn1 [6 m-3HP, 3-hydroxy-6-methylpyridine]",(7.4 ± 0.1)·10^3
3,"Cc1ncccc1O [2 m-3HP, 3-hydroxy-2-methylpyridine]",(9.3 ± 0.2)·10^3

# — PMC4500996, “Ortho-methylated 3-hydroxypyridines hinder hen egg-white lysozyme fibrillogenesis” (Scientific Reports, 2015)
